Where a name gives a salt, the structure may show the parent alone. Read-outs that look alike come from different tables or passages of the source.
Tests used:
[1] = molecular target: mutant G2019S LRRK2 (Homo sapiens, UniProt Q5S007, G2019S); test: LRRK2 Assay, Format 2 (Lantha Screen), G2019S mutant; assay type: biochemical; design: purchased Invitrogen PV4881
Protocol: (§1) LRRK2 kinase activity was measured using Lantha Screen technology from Invitrogen. GST-tagged truncated LRRK2 from Invitrogen (Cat # PV4874) was incubated with a fluorescein-labeled peptide substrate based upon ezrin/radixin/moesin (ERM), also known as LRRKtide (Invitrogen cat # PR8976A), in the presence of a dose response of compound. Upon completion, the assay was stopped and detected with a terbium labeled anti-phospho-ERM antibody (Invitrogen, cat # PR8975A). […] Using Echo acoustic dispensing, 60 nL of compound was transferred to a low volume Corning 384-well assay plate. 3 μL of a working solution of substrate (200 nM LRRKtide, […]) prepared in assay buffer (50 mM HEPES, pH 7.5, 3 mM MgCl2, with 2 mM DTT and 0.01% Brij35 added fresh) was added to the 60 nL compound assay plate. The kinase reaction was started with […] of a working solution of LRRK2 enzyme at a concentration of […]. The final reaction concentrations were 100 nM LRRKtide, […], […] LRRK2 enzyme and a compound dose response with a top dose of 3 mM. The reaction was allowed to progress at room temperature for 30 minutes and then stopped with the addition of […] of detection buffer (20 mM Tris pH 7.6, 0.01% NP-40, 6 mM EDTA with 2 nM terbium labeled anti-phospho-ERM). After an incubation of 1 hour at room temperature, the plate was read on an Envision with an excitation wavelength of 340 nm and a reading emission at both 520 nm and 495 nm. The ratio of the 520 nm and 495 nm emission was used to analyze the data. Inhibition of mutant G2019S LRRK2 (Invitrogen cat # PV4881) was measured in the exact same method. All final concentrations of substrate ATP and enzyme were the same.

[2] = molecular target: T1, GST-tagged truncated LRRK2 (Homo sapiens, UniProt Q5S007); test: LRRK2 Assay, Format 2 (Lantha Screen), WT; assay type: biochemical
T1 construct: GST-tagged truncated LRRK2 from Invitrogen (Cat # PV4874); GST; purchased Invitrogen PV4874
T1 sequence (Q5S007 970-2527 limits assumed): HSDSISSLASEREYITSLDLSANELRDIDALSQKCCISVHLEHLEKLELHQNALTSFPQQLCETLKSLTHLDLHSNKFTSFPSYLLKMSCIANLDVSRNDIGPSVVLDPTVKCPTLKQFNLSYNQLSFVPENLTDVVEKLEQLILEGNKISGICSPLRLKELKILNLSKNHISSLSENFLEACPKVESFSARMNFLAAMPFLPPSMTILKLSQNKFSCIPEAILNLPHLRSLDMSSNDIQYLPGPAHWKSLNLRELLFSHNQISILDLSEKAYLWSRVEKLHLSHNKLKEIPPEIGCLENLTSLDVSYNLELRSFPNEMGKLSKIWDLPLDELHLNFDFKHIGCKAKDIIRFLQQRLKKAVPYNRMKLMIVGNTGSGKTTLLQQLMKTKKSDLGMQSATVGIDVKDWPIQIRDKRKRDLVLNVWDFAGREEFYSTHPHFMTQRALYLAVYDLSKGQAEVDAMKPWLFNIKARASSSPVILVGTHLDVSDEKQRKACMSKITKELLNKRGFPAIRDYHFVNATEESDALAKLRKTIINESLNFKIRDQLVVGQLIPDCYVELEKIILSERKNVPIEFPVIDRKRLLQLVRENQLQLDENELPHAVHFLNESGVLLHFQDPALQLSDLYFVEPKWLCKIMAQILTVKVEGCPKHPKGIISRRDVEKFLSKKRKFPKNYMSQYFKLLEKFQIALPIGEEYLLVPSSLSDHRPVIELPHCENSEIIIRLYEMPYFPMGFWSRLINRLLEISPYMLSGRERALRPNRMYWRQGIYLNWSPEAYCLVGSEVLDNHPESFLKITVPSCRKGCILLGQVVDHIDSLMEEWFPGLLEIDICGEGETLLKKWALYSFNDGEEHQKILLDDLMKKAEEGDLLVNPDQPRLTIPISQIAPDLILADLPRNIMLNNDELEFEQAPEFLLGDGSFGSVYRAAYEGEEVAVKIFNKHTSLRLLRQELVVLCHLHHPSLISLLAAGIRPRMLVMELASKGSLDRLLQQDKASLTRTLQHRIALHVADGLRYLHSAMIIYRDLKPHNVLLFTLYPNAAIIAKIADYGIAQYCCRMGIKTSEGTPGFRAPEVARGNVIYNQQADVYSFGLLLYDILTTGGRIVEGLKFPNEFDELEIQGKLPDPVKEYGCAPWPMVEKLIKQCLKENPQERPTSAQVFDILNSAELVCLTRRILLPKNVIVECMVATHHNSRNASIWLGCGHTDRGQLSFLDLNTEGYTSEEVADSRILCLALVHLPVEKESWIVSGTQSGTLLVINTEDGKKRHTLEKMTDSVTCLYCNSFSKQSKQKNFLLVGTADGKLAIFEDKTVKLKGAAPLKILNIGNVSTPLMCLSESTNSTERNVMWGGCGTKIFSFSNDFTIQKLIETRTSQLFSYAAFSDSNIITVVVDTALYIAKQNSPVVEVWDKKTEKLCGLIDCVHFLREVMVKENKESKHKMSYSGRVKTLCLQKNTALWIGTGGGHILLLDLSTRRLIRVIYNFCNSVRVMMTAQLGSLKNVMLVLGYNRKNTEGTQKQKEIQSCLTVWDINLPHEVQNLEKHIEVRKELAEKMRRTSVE
Protocol: as §1

[3] = geometric mean of 2-4 determinations unless otherwise indicated (a: >=5; b: single determination), read-out: LRRK2, Format 2 G2019S IC50
[4] = geometric mean of 2-4 determinations unless otherwise indicated (a: >=5; b: single determination)
[5] = 100 nM LRRKtide, 1000 mM ATP (so in the source), 30 minutes at room temperature, read-out: LRRK2, Format 2 G2019S mutant IC50
[6] = 100 nM LRRKtide, 1000 mM ATP (so in the source), 30 minutes at room temperature

mutant G2019S LRRK2, sequence (Q5S007 970-2527 G2019S limits assumed): as the sequence (Q5S007 970-2527 limits assumed) above, with G1050S counted along it

Q: What does the source list for `N#Cc1ccc2ncc3nc(Cc4cscn4)n([C@@H]4CC[C@H](F)C4)c3c2c1` (single isomer, unassigned; ent-1) [Example 203, 1-(cis-3-fluorocyclopentyl)-2-(1,3-thiazol-4-ylmethyl)-1H-imidazo[4,5-c]quinoline-8-carbonitrile, ENT-1]?
A: IC50 [1, 3]: 16.3 nM; IC50 [2, 4]: 12.2 nM

Q: Which results are given for `N#CCc1nc2cnc3ccc(Cl)cc3c2n1[C@@H]1CC[C@H](F)C1` (single isomer, unassigned; ent-1) [Example 204, {8-chloro-1-(cis-3-fluorocyclopentyl)-1H-imidazo[4,5-c]quinolin-2-yl}acetonitrile, ENT-1]?
A: IC50 [1, 3]: 35.1 nM; IC50 [2, 4]: 22.8 nM

Q: `N#Cc1ccc2ncc3nc(Cc4cc(C(F)(F)F)on4)n([C@@H]4CC[C@H](F)C4)c3c2c1` (single isomer, unassigned; ent-1) [Example 211, 1-(cis-3-fluorocyclopentyl)-2-{[5-(trifluoromethyl)-1,2-oxazol-3-yl]methyl}-1H-imidazo[4,5-c]quinoline-8-carbonitrile, ENT-1] was tested. Which IC50 [1, 3] did it give?
A: The IC50 was 18.7 nM.

Q: And the IC50 [2, 4]?
A: The IC50 was 12.8 nM.

Q: Which IC50 [1, 3] does the source give for `Cc1cnc(Cc2nc3cnc4ccc(C#N)cc4c3n2C2CCOC(C)(C)C2)cn1` (single isomer, unassigned; ent-1) [Example 215, 1-(2,2-dimethyltetrahydro-2H-pyran-4-yl)-2-[(5-methylpyrazin-2-yl)methyl]-1H-imidazo[4,5-c]quinoline-8-carbonitrile, ENT-1] here?
A: The IC50 was 13.9 nM.

Q: What about the IC50 [2, 4] of the same molecule?
A: The IC50 was 13.4 nM.

Q: `Cc1cn(Cc2nc3cnc4ccc(C#N)cc4c3n2C2CCC(F)C2)nn1` (single isomer, unassigned; ent-1) [Example C73, 1-(cis-3-fluorocyclopentyl)-2-[(4-methyl-1H-1,2,3-triazol-1-yl)methyl]-1H-imidazo[4,5-c]quinoline-8-carbonitrile, ENT-1] was tested. Which IC50 [1, 3] did it give?
A: Its IC50 is 26.1 nM.

Q: And the IC50 [2, 4]?
A: Its IC50 is 20.4 nM.

Q: What does the source list for `Cc1cc(Cc2nc3cnc4ccc(C#N)cc4c3n2C2CCCC2(F)F)no1` (single isomer, unassigned; ent-2) [Example 144, 1-(2,2-difluorocyclopentyl)-2-[(5-methyl-1,2-oxazol-3-yl)methyl]-1H-imidazo[4,5-c]quinoline-8-carbonitrile, ENT-2]?
A: IC50 [1, 3]: 29.3 nM; IC50 [2, 4]: 19.3 nM

Q: Which results are given for `Cc1cc(Cc2nc3cnc4ccc(C#N)cc4c3n2[C@@H]2CCC[C@@H]2F)no1` (single isomer, unassigned; ent-2) [Example 147, 1-(cis-2-fluorocyclopentyl)-2-[(5-methyl-1,2-oxazol-3-yl)methyl]-1H-imidazo[4,5-c]quinoline-8-carbonitrile, ENT-2]?
A: IC50 [1, 3]: 22.6 nM; IC50 [2, 4]: 14.5 nM

Q: Which results are given for `Cc1nn2cc(Cc3nc4cnc5ccc(C#N)cc5c4n3[C@@H]3CC[C@H](F)C3)nc2s1` (single isomer, unassigned; ent-2) [Example 169, 1-(cis-3-fluorocyclopentyl)-2-[(2-methylimidazo[2,1-b][1,3,4]thiadiazol-6-yl)methyl]-1H-imidazo[4,5-c]quinoline-8-carbonitrile, ENT-2]?
A: IC50 [1, 3]: 5.55 nM; IC50 [2, 4]: 3.59 nM

Q: What does the source list for `CC1(C)CC(n2c(Cc3cc(C(F)(F)F)on3)nc3cnc4ccc(C#N)cc4c32)CCO1` (single isomer, unassigned; ent-2) [Example 177, 1-(2,2-dimethyltetrahydro-2H-pyran-4-yl)-2-{[5-(trifluoromethyl)-1,2-oxazol-3-yl]methyl}-1H-imidazo[4,5-c]quinoline-8-carbonitrile, ENT-2]?
A: IC50 [1, 3]: 914 nM; IC50 [2, 4]: 1220 nM

Q: How did the IC50 [1, 3] turn out when `Cc1cn(Cc2nc3cnc4ccc(C#N)cc4c3n2C2CCCC2(F)F)nn1` (single isomer, unassigned; ent-2) [Example 197, 1-(2,2-difluorocyclopentyl)-2-[(4-methyl-1H-1,2,3-triazol-1-yl)methyl]-1H-imidazo[4,5-c]quinoline-8-carbonitrile, ENT-2] was run?
A: The IC50 was 18.7 nM.

Q: What about the IC50 [2, 4] of the same molecule?
A: The IC50 was 12.7 nM.

Q: How did the IC50 [1, 3] turn out when `COc1ccc(Cc2nc3cnc4ccc(C#N)cc4c3n2C2CCOC(C)(C)C2)nc1` (single isomer, unassigned; ent-2) [Example 207, 1-(2,2-dimethyltetrahydro-2H-pyran-4-yl)-2-[(5-methoxypyridin-2-yl)methyl]-1H-imidazo[4,5-c]quinoline-8-carbonitrile, ENT-2] was run?
A: Its IC50 is 6.84 nM.

Q: And the IC50 [2, 4]?
A: The IC50 was 7.53 nM.

Q: How did the IC50 [1, 3] turn out when `Cc1cnc(Cc2nc3cnc4ccc(C#N)cc4c3n2C2CCC(F)C2)cn1` (single isomer, unassigned; ent-2) [Example C89, 1-(cis-3-fluorocyclopentyl)-2-[(5-methylpyrazin-2-yl)methyl]-1H-imidazo[4,5-c]quinoline-8-carbonitrile, ENT-2] was run?
A: The IC50 was 20.5 nM.

Q: And the IC50 [2, 4]?
A: Its IC50 is 18.8 nM.

Q: Which results are given for `Cc1cc(Cc2nc3cnc4ccc(C#N)cc4c3n2C2CCCCC2(F)F)no1` (single isomer, unassigned; ent-2) [Example C94, 1-(2,2-difluorocyclohexyl)-2-[(5-methyl-1,2-oxazol-3-yl)methyl]-1H-imidazo[4,5-c]quinoline-8-carbonitrile, ENT-2]?
A: IC50 [1, 3]: 30.5 nM; IC50 [2, 4]: 21.4 nM

Q: What does the source list for `Cc1cc(Cc2nc3cnc4ccc(C#N)cc4c3n2C2CCC(F)C2)on1` (single isomer, unassigned; ent-2) [enantiomer of Example 118, 1-(cis-3-fluorocyclopentyl]-2-[(3-methyl-1,2-oxazol-5-yl)methyl]-1H-imidazo[4,5-c]quinoline-8-carbonitrile, ENT-2]?
A: IC50 [1, 5]: 26.1 nM; IC50 [2, 6]: 22.4 nM

Q: How did the IC50 [1, 5] turn out when `COCc1cn(Cc2nc3cnc4ccc(C#N)cc4c3n2C2CCC(F)C2)nn1` (single isomer, unassigned; ent-2) [enantiomer of Example 132, 1-(cis-3-fluorocyclopentyl)-2-{[4-(methoxymethyl)-1H-1,2,3-triazol-1-yl]methyl}-1H-imidazo[4,5-c]quinoline-8-carbonitrile, ENT-2] was run?
A: Its IC50 is 34.5 nM.

Q: And the IC50 [2, 6]?
A: The IC50 was 26.8 nM.

Q: Which results are given for `Cc1cc(Cc2nc3cnc4ccc(C#N)cc4c3n2[C@@H]2CCO[C@H](C)C2)on1` [Example 95, 2-[(3-Methyl-1,2-oxazol-5-yl)methyl]-1-[(2R,4R)-2-methyltetrahydro-2H-pyran-4-yl]-1H-imidazo[4,5-c]quinoline-8-carbonitrile]?
A: IC50 [1, 3]: 6 nM; IC50 [2, 4]: 5.36 nM

Q: For `COc1ccc(Cc2nc3cnc4ccc(C#N)cc4c3n2[C@@H]2CCO[C@H](C)C2)nc1` [Example 96, 2-[(5-Methoxypyridin-2-yl)methyl]-1-[(2R,4R)-2-methyltetrahydro-2H-pyran-4-yl]-1H-imidazo[4,5-c]quinoline-8-carbonitrile], which IC50 [1, 3] is on record?
A: The IC50 was 4.65 nM.

Q: And the IC50 [2, 4]?
A: Its IC50 is 6.31 nM.

Q: With `C[C@@H]1C[C@H](n2c(Cc3cnccn3)nc3cnc4ccc(C#N)cc4c32)CCO1` [Example 98, 1-[(2R,4R)-2-Methyltetrahydro-2H-pyran-4-yl]-2-(pyrazin-2-ylmethyl)-1H-imidazo[4,5-c]quinoline-8-carbonitrile, formate salt] as the molecule, how does the IC50 [1, 3] read?
A: The IC50 was 6.16 nM.

Q: And the IC50 [2, 4]?
A: The IC50 was 7.56 nM.

Q: Which IC50 [1, 3] does the source give for `C[C@@H]1C[C@H](n2c(Cn3cc(C(F)(F)F)nn3)nc3cnc4ccc(Cl)cc4c32)CCO1` [Example 99, 8-Chloro-1-[(2R,4R)-2-methyltetrahydro-2H-pyran-4-yl]-2-{[4-(trifluoromethyl)-1H-1,2,3-triazol-1-yl]methyl}-1H-imidazo[4,5-c]quinoline, formate salt] here?
A: Its IC50 is 5.42 nM.

Q: And the IC50 [2, 4]?
A: Its IC50 is 5.84 nM.

Q: What does the source list for `Cc1ccc(Cc2nc3cnc4ccc(Cl)cc4c3n2[C@@H]2CCO[C@H](C)C2)nc1` [Example 100, 8-Chloro-2-[(5-methylpyridin-2-yl)methyl]-1-[(2R,4R)-2-methyltetrahydro-2H-pyran-4-yl]-1H-imidazo[4,5-c]quinoline]?
A: IC50 [1, 3]: 5.01 nM; IC50 [2, 4]: 4.74 nM

Q: `Cc1cnn(Cc2nc3cnc4ccc(Cl)cc4c3n2[C@@H]2CCO[C@H](C)C2)n1` [Example 103, 8-Chloro-1-[(2R,4R)-2-methyltetrahydro-2H-pyran-4-yl]-2-[(4-methyl-2H-1,2,3-triazol-2-yl)methyl]-1H-imidazo[4,5-c]quinoline] was tested. Which IC50 [1, 3] did it give?
A: Its IC50 is 10.6 nM.

Q: And the IC50 [2, 4]?
A: The IC50 was 11.2 nM.

Q: With `C[C@@H]1C[C@H](n2c(CC#N)nc3cnc4ccc(C#N)cc4c32)CCO1` [Example 117, 2-(cyanomethyl)-1-[(2R,4R)-2-methyltetrahydro-2H-pyran-4-yl]-1H-imidazo[4,5-c]quinoline-8-carbonitrile] as the molecule, how does the IC50 [1, 3] read?
A: The IC50 was 19.6 nM.

Q: And the IC50 [2, 4]?
A: The IC50 was 16.8 nM.

Q: For `C[C@@H]1C[C@H](n2c(Cc3cc(C(F)(F)F)on3)nc3cnc4ccc(C#N)cc4c32)CCO1` [Example 119, 1-[(2R,4R)-2-methyltetrahydro-2H-pyran-4-yl]-2-{[5-(trifluoromethyl)-1,2-oxazol-3-yl]methyl}-1H-imidazo[4,5-c]quinoline-8-carbonitrile], which IC50 [1, 3] is on record?
A: Its IC50 is 8.21 nM.

Q: What about the IC50 [2, 4] of the same molecule?
A: The IC50 was 7.53 nM.
